# Measured values reported in patent US20040235070A1, “Immune reactivity to expressed activated oncogenes for diagnosis and treatment of malignancy” (Washington Research Foundation, priority 1990, published 2004).
# Key:
# [1] = system: lymph node and splenic lymphocytes from immunized mice; assay: Proliferation of lymph node and spleen lymphocytes from mice immunized with bcr3-abl2 peptide; assay type: cell-based; details: BALB/c mice immunized with bcr3-abl2 12 mer peptide
# Procedure: Ten days following immunization with peptide, draining lymph node cells (Panel A) and spleen cells (Panel B) were cultured alone or with bcr3-abl2 12 mer peptide, or bcr2-abl2 12 mer peptide, or ras-c12 12 mer peptide at 25 μg/ml, and assayed after 96 hours for proliferation by [^3H] thymidine uptake. The data represent the mean of triplicate determinations of the c.p.m.+S.D.
# Mice (female BALB/c and C57BL/6 (B6), 6 to 8 weeks old; Jackson Laboratories, Bar Harbor, Me.) were inoculated twice at 2-week intervals by subcutaneous injection with Complete Freund's Adjuvant (Sigma Chemical Co., St. Louis, Mo.) alone or emulsified with bcr3-abl2 peptide (100 μg). Ten days after the final immunization, single cell suspensions of draining lymph nodes and spleens were prepared in medium consisting of 1:1 mixture of RPMI 1640 (Gibco Laboratories, Inc., Grand Island, N.Y.) and EHAA (Biofluids, Inc., Rockville, Md.) with 2.5×10^−5 M 2-ME, 200 U/ml penicillin, 200 U/ml streptomycin, 10 mM L-glutamine and 10% fetal calf serum. For proliferative assays, lymphocytes were cultured in 96-well plates at 2×10^5 cells per well with 4×10^5 irradiated syngeneic spleen cells (3,000 rad) and designated (total volume of 200 μl per well). Plates were incubated in a humidified atmosphere under 5% CO2 tension at 37° C. for 72 hours, and then pulsed for 18 hours with […] of [^3H]-thumidine per well. […]
# [2] = system: bcr3-abl2 peptide-specific CD4^+ T cell clones; assay: Proliferative assay of bcr3-abl2 peptide-specific CD4+ T cell clones ([3H] thymidine incorporation); assay type: cell-based, BALB/c mice; details: for [^3H] Thymidine Incorporation (c.p.m.) after Stimulation / [^3H] Thymidine Incorporation (c.p.m.): 96-hour culture; for [^3H] Thymidine Incorporation (c.p.m.): Table 2; for [^3H] Thymidine Incorporation (c.p.m.) after Stimulation with bcr3-abl2 peptide (5 μg/ml): peptides of varying lengths 5 μg/ml, 96 hour culture, Table 4
# Procedure: Mice (female BALB/c and C57BL/6 (B6), 6 to 8 weeks old; Jackson Laboratories, Bar Harbor, Me.) were inoculated twice at 2-week intervals by subcutaneous injection with Complete Freund's Adjuvant (Sigma Chemical Co., St. Louis, Mo.) alone or emulsified with bcr3-abl2 peptide (100 μg). Ten days after the final immunization, single cell suspensions of draining lymph nodes and spleens were prepared in medium consisting of 1:1 mixture of RPMI 1640 (Gibco Laboratories, Inc., Grand Island, N.Y.) and EHAA (Biofluids, Inc., Rockville, Md.) with 2.5×10^−5 M 2-ME, 200 U/ml penicillin, 200 U/ml streptomycin, 10 mM L-glutamine and 10% fetal calf serum. For proliferative assays, lymphocytes were cultured in 96-well plates at 2×10^5 cells per well with 4×10^5 irradiated syngeneic spleen cells (3,000 rad) and designated (total volume of 200 μl per well). Plates were incubated in a humidified atmosphere under 5% CO2 tension at 37° C. for 72 hours, and then pulsed for 18 hours with […] of [^3H]-thumidine per well. Proliferative responses of cloned T cells utilized 2×10^4 cells per well with 5×10^5 irradiated syngeneic spleen cells (3,000 rad) and designated peptide.
# Lymphocytes from the draining lymph nodes of mice immunized with bcr3-abl2 peptide were cultured in 24-well culture plates at 4×10^6 cells per well with 2×10^6 irradiated syngeneic spleen cells and bcr3-abl2 peptide at 25 μg/ml (total volume 2 ml). The plates were cultured in a humidified atmosphere under 5% CO2 tension at 37° C. for 5 days then split 1:2. After 10 days, lymphocytes were restimulated at 1×10^6 lymphocytes per well in 24-well culture plates with 5×10^6 irradiated syngeneic spleen cells and peptide (25 μg/ml). Two days after the second in vitro stimulation, T cells were-plated at 0.5 cells per well in 96-well flat-bottom plates with 1×10^6 irradiated syngeneic spleen cells and rIL-2 (50 U/ml). Derived T cell clones were maintained by periodic stimulation with peptide (1 μg/ml) plus irradiated syngeneic spleen cells followed by expansion with rIL-2 (10 U/ml) every 2 weeks. T cell clones were stained with FITC-conjugated anti-Thy 1.2 (1%), or FITC-conjugated anti-Lyt2 (2%), or PE-conjugated anti-L3T4 (3%) mAbs (Becton Dickinson Immunocytochemistry Systems, Mountain View, Calif.) at 4° C. for 45 minutes.
sequence,measurement,setting,value
"G F K Q S S K A L Q R P (GFKQSSKALQRP) [bcr3-abl2 12 mer peptide, 12 amino acid peptide identical to the joining region of p210 bcr-abl (bcr exon 3 fused to c-abl exon 2)]",proliferation in vitro of lymph node and splenic lymphocytes,[1],proliferated in vitro
same,[^3H] Thymidine Incorporation (c.p.m.) after Stimulation,"[2]; T cell clone 1D2, peptide 0.04 μg/ml","16,423 c.p.m."
same,[^3H] Thymidine Incorporation (c.p.m.) after Stimulation,"[2]; T cell clone 1D2, peptide 0.2 μg/ml","91,251 c.p.m."
same,[^3H] Thymidine Incorporation (c.p.m.) after Stimulation,"[2]; T cell clone 1D2, peptide 1 μg/ml","183,229 c.p.m."
same,[^3H] Thymidine Incorporation (c.p.m.),"[2]; T cell clone 1D2, peptide 5 μg/ml","274,701 c.p.m."
same,[^3H] Thymidine Incorporation (c.p.m.) after Stimulation,"[2]; T cell clone 1D2, peptide 5 μg/ml, Table 3","259,018 c.p.m."
same,[^3H] Thymidine Incorporation (c.p.m.) after Stimulation,"[2]; T cell clone 1D2, peptide 25 μg/ml","66,329 c.p.m."
same,[^3H] Thymidine Incorporation (c.p.m.) after Stimulation with bcr3-abl2 peptide (5 μg/ml),[2]; T cell clone 1D2,"120,049 c.p.m."
same,[^3H] Thymidine Incorporation (c.p.m.) after Stimulation,"[2]; T cell clone 2B12, peptide 0.04 μg/ml","4,132 c.p.m."
same,[^3H] Thymidine Incorporation (c.p.m.) after Stimulation,"[2]; T cell clone 2B12, peptide 0.2 μg/ml","71,651 c.p.m."
same,[^3H] Thymidine Incorporation (c.p.m.) after Stimulation,"[2]; T cell clone 2B12, peptide 1 μg/ml","213,089 c.p.m."
same,[^3H] Thymidine Incorporation (c.p.m.),"[2]; T cell clone 2B12, peptide 5 μg/ml","109,319 c.p.m."
same,[^3H] Thymidine Incorporation (c.p.m.) after Stimulation,"[2]; T cell clone 2B12, peptide 5 μg/ml, Table 3","229,010 c.p.m."
same,[^3H] Thymidine Incorporation (c.p.m.) after Stimulation,"[2]; T cell clone 2B12, peptide 25 μg/ml","132,620 c.p.m."
same,[^3H] Thymidine Incorporation (c.p.m.) after Stimulation,"[2]; T cell clone 2D4, peptide 0.04 μg/ml","12,599 c.p.m."
same,[^3H] Thymidine Incorporation (c.p.m.) after Stimulation,"[2]; T cell clone 2D4, peptide 0.2 μg/ml","150,711 c.p.m."
same,[^3H] Thymidine Incorporation (c.p.m.) after Stimulation,"[2]; T cell clone 2D4, peptide 1 μg/ml","256,606 c.p.m."
same,[^3H] Thymidine Incorporation (c.p.m.),"[2]; T cell clone 2D4, peptide 5 μg/ml","262,799 c.p.m."
same,[^3H] Thymidine Incorporation (c.p.m.) after Stimulation,"[2]; T cell clone 2D4, peptide 5 μg/ml, Table 3","182,266 c.p.m."
same,[^3H] Thymidine Incorporation (c.p.m.) after Stimulation,"[2]; T cell clone 2D4, peptide 25 μg/ml","42,623 c.p.m."
same,[^3H] Thymidine Incorporation (c.p.m.) after Stimulation,"[2]; T cell clone 2E3, peptide 0.04 μg/ml","1,475 c.p.m."
same,[^3H] Thymidine Incorporation (c.p.m.) after Stimulation,"[2]; T cell clone 2E3, peptide 0.2 μg/ml","93,921 c.p.m."
same,[^3H] Thymidine Incorporation (c.p.m.) after Stimulation,"[2]; T cell clone 2E3, peptide 1 μg/ml","273,273 c.p.m."
same,[^3H] Thymidine Incorporation (c.p.m.),"[2]; T cell clone 2E3, peptide 5 μg/ml","293,219 c.p.m."
same,[^3H] Thymidine Incorporation (c.p.m.) after Stimulation,"[2]; T cell clone 2E3, peptide 5 μg/ml, Table 3","407,729 c.p.m."
same,[^3H] Thymidine Incorporation (c.p.m.) after Stimulation,"[2]; T cell clone 2E3, peptide 25 μg/ml","358,253 c.p.m."
same,[^3H] Thymidine Incorporation (c.p.m.) after Stimulation,"[2]; T cell clone 2E10, peptide 0.04 μg/ml","26,195 c.p.m."
same,[^3H] Thymidine Incorporation (c.p.m.) after Stimulation,"[2]; T cell clone 2E10, peptide 0.2 μg/ml","235,103 c.p.m."
same,[^3H] Thymidine Incorporation (c.p.m.) after Stimulation,"[2]; T cell clone 2E10, peptide 1 μg/ml","333,056 c.p.m."
same,[^3H] Thymidine Incorporation (c.p.m.),"[2]; T cell clone 2E10, peptide 5 μg/ml","242,633 c.p.m."
same,[^3H] Thymidine Incorporation (c.p.m.) after Stimulation,"[2]; T cell clone 2E10, peptide 5 μg/ml, Table 3","312,783 c.p.m."
same,[^3H] Thymidine Incorporation (c.p.m.) after Stimulation,"[2]; T cell clone 2E10, peptide 25 μg/ml","131,643 c.p.m."
same,[^3H] Thymidine Incorporation (c.p.m.) after Stimulation with bcr3-abl2 peptide (5 μg/ml),[2]; T cell clone 2E10,"96,525 c.p.m."
same,[^3H] Thymidine Incorporation (c.p.m.) after Stimulation,"[2]; T cell clone 3B7, peptide 0.04 μg/ml","60,957 c.p.m."
same,[^3H] Thymidine Incorporation (c.p.m.) after Stimulation,"[2]; T cell clone 3B7, peptide 0.2 μg/ml","56,967 c.p.m."
same,[^3H] Thymidine Incorporation (c.p.m.) after Stimulation,"[2]; T cell clone 3B7, peptide 1 μg/ml","111,212 c.p.m."
same,[^3H] Thymidine Incorporation (c.p.m.),"[2]; T cell clone 3B7, peptide 5 μg/ml","64,935 c.p.m."
same,[^3H] Thymidine Incorporation (c.p.m.) after Stimulation,"[2]; T cell clone 3B7, peptide 5 μg/ml, Table 3","149,640 c.p.m."
same,[^3H] Thymidine Incorporation (c.p.m.) after Stimulation,"[2]; T cell clone 3B7, peptide 25 μg/ml","53,441 c.p.m."
same,[^3H] Thymidine Incorporation (c.p.m.) after Stimulation,"[2]; T cell clone 3E11, peptide 0.04 μg/ml","91,240 c.p.m."
same,[^3H] Thymidine Incorporation (c.p.m.) after Stimulation,"[2]; T cell clone 3E11, peptide 0.2 μg/ml","135,985 c.p.m."
same,[^3H] Thymidine Incorporation (c.p.m.) after Stimulation,"[2]; T cell clone 3E11, peptide 1 μg/ml","189,843 c.p.m."
same,[^3H] Thymidine Incorporation (c.p.m.),"[2]; T cell clone 3E11, peptide 5 μg/ml","263,425 c.p.m."
same,[^3H] Thymidine Incorporation (c.p.m.) after Stimulation,"[2]; T cell clone 3E11, peptide 5 μg/ml, Table 3","130,633 c.p.m."
same,[^3H] Thymidine Incorporation (c.p.m.) after Stimulation,"[2]; T cell clone 3E11, peptide 25 μg/ml","40,755 c.p.m."
same,[^3H] Thymidine Incorporation (c.p.m.) after Stimulation,"[2]; T cell clone 3G2, peptide 0.04 μg/ml","9,440 c.p.m."
same,[^3H] Thymidine Incorporation (c.p.m.) after Stimulation,"[2]; T cell clone 3G2, peptide 0.2 μg/ml","49,602 c.p.m."
same,[^3H] Thymidine Incorporation (c.p.m.) after Stimulation,"[2]; T cell clone 3G2, peptide 1 μg/ml","150,799 c.p.m."
same,[^3H] Thymidine Incorporation (c.p.m.),"[2]; T cell clone 3G2, peptide 5 μg/ml","30,846 c.p.m."
same,[^3H] Thymidine Incorporation (c.p.m.) after Stimulation,"[2]; T cell clone 3G2, peptide 5 μg/ml, Table 3","168,387 c.p.m."
same,[^3H] Thymidine Incorporation (c.p.m.) after Stimulation,"[2]; T cell clone 3G2, peptide 25 μg/ml","132,024 c.p.m."
same,[^3H] Thymidine Incorporation (c.p.m.) after Stimulation,"[2]; T cell clone 3G3, peptide 0.04 μg/ml","11,510 c.p.m."
same,[^3H] Thymidine Incorporation (c.p.m.) after Stimulation,"[2]; T cell clone 3G3, peptide 0.2 μg/ml","18,403 c.p.m."
same,[^3H] Thymidine Incorporation (c.p.m.) after Stimulation,"[2]; T cell clone 3G3, peptide 1 μg/ml","93,219 c.p.m."
same,[^3H] Thymidine Incorporation (c.p.m.),"[2]; T cell clone 3G3, peptide 5 μg/ml","61,521 c.p.m."
same,[^3H] Thymidine Incorporation (c.p.m.) after Stimulation,"[2]; T cell clone 3G3, peptide 5 μg/ml, Table 3","143,670 c.p.m."
same,[^3H] Thymidine Incorporation (c.p.m.) after Stimulation,"[2]; T cell clone 3G3, peptide 25 μg/ml","101,280 c.p.m."
same,response of bcr3-abl2 peptide-specific T cell clones (in words),[2]; proliferative assay with irradiated syngeneic APC,responded specifically
same,lowest concentration to which clones responded vigorously,"[2]; some clones, lowest concentration tested",0.04 µg/mL
